According to patent US12065434B2, “Metabolites of GLP1R agonists” (Pfizer Inc., priority 2020, dated 2024):

Columns and labels:
mouse hepatocytes = assay: In vitro metabolism of Compound 2 in mouse cryopreserved hepatocytes; format: in vitro ADME; design: key to Relative abundance of metabolite of Compound 2, Mouse: ND Not detected.; trace: Trace: observed by HPLC/MS measurements only.; + Minor as assessed by HPLC/UV measurements; ++ moderate as assessed by HPLC/UV measurements; +++ major as assessed by HPLC/UV measurements.; * m/z 593 and m/z 505 co-eluted in rabbit hepatocytes.; ** m/z 591 c and m/z 593 were merged in human hepatocytes and Hepatopack.; *** m/z 607 and m/z 751 b were merged in rabbit hepatocytes; conditions: for metabolite of Compound 2 observed in mouse hepatocyte incubations: 10 μM Compound 2, 7.5×10^5 cells/mL, 1 and 4 hrs composite
Protocol: (§1) Male CD-1 mouse hepatocytes (lot YHL), male Wistar-Han rat hepatocytes (Celsius; product number: M000065; lot: SLA), female New Zealand rabbit hepatocytes (lot 1510147), male cryopreserved cynomolgus monkey hepatocytes (Celsius; product number: M00305; lot: DNB) and mixed-gender cryopreserved human hepatocytes (Bioreclamation; product number: S01988; lot: DCM) were obtained for the hepatocyte in-vitro assessments.
(§2) At time 0 hrs 550 μL aliquots were removed from incubations and quenched with 5 volumes of ACN containing 0.1% formic acid. At 1 and 4 hrs, 275 μL aliquots were removed and quenched as above; these were combined in the same tube to prepare a composite sample. For all hepatocyte experiments, samples were processed by centrifugation at 1900×g for 5 minutes, and then the supernatant was transferred to clean glass tubes and evaporated to dryness under a stream of N2 using a Turbovap at 37° C. Sample residues were reconstituted in mobile phase prior to analysis by HPLC/UV/MS^n.
(§3) Samples were analyzed by HPLC/UV/MS^n using a Thermo Orbitrap Elite mass spectrometer in conjunction with a Thermo Open Accela UHPLC system. A 3.0×150 mm, 2.5 μm Acquity CSH C18 HPLC column (Waters) was heated to 45° C. for separation of analytes. The mobile phase was a gradient of A): water containing 0.1% formic acid, and B): acetonitrile. The flow rate was 450 μL/min, and the following gradient program was utilized: […]
(§4) UV absorbance was monitored with a photo-diode array detector from 220-450 nm. The mass spectrometer was operated in positive-ion mode with a HESI ion source at a potential of 3.0 kV, and capillary and source heater temperatures of 380 and 300° C., respectively. Sheath, auxiliary, and sweep gas flows were set to 45, 10, and 2 units, respectively. Full scan mass spectra were acquired over the range 120-1200 m/z at a resolving power of 30,000 (specified at m/z 400). Data-dependent MS^n spectra were acquired in an automated fashion at 15,000 resolving power using CID and HCD fragmentation with normalized collision energy settings of 28 and 65 V, respectively.
(§5) Metabolites were characterized by comparisons of mass spectral fragmentation patterns with that of a Compound 2 standard. All HPLC/UV/MS^n data were processed using Xcalibur v. 2.2, and integrated UV peak areas were subjected to weighted UV binning procedures utilizing an Excel template.

rat hepatocytes = assay: In vitro metabolism of Compound 2 in rat cryopreserved hepatocytes; format: in vitro ADME; design: key to Relative abundance of metabolite of Compound 2, Rat: ND Not detected.; trace: Trace: observed by HPLC/MS measurements only.; + Minor as assessed by HPLC/UV measurements; ++ moderate as assessed by HPLC/UV measurements; +++ major as assessed by HPLC/UV measurements.; * m/z 593 and m/z 505 co-eluted in rabbit hepatocytes.; ** m/z 591 c and m/z 593 were merged in human hepatocytes and Hepatopack.; *** m/z 607 and m/z 751 b were merged in rabbit hepatocytes; conditions: for metabolite of Compound 2 observed in rat hepatocyte incubations: 10 μM Compound 2, 7.5×10^5 cells/mL, 1 and 4 hrs composite
Protocol: as §1, §2, §3, §4, §5

rabbit hepatocytes = assay: In vitro metabolism of Compound 2 in rabbit cryopreserved hepatocytes; format: in vitro ADME; design: key to Relative abundance of metabolite of Compound 2, Rabbit: ND Not detected.; trace: Trace: observed by HPLC/MS measurements only.; + Minor as assessed by HPLC/UV measurements; ++ moderate as assessed by HPLC/UV measurements; +++ major as assessed by HPLC/UV measurements.; * m/z 593 and m/z 505 co-eluted in rabbit hepatocytes.; ** m/z 591 c and m/z 593 were merged in human hepatocytes and Hepatopack.; *** m/z 607 and m/z 751 b were merged in rabbit hepatocytes; conditions: for metabolite of Compound 2 observed in rabbit hepatocyte incubations: 10 μM Compound 2, 7.5×10^5 cells/mL, 1 and 4 hrs composite
Protocol: as §1, §2, §3, §4, §5

monkey hepatocytes = assay: In vitro metabolism of Compound 2 in monkey cryopreserved hepatocytes; format: in vitro ADME, cynomolgus monkey; design: key to Relative abundance of metabolite of Compound 2, Monkey: ND Not detected.; trace: Trace: observed by HPLC/MS measurements only.; + Minor as assessed by HPLC/UV measurements; ++ moderate as assessed by HPLC/UV measurements; +++ major as assessed by HPLC/UV measurements.; * m/z 593 and m/z 505 co-eluted in rabbit hepatocytes.; ** m/z 591 c and m/z 593 were merged in human hepatocytes and Hepatopack.; *** m/z 607 and m/z 751 b were merged in rabbit hepatocytes; conditions: for metabolite of Compound 2 observed in monkey hepatocyte incubations: 10 μM Compound 2, 7.5×10^5 cells/mL, 1 and 4 hrs composite
Protocol: as §1, §2, §3, §4, §5

human hepatocytes = assay: In vitro metabolism of Compound 2 in human cryopreserved hepatocytes; format: in vitro ADME; design: key to Relative abundance of metabolite of Compound 2, Human: ND Not detected.; trace: Trace: observed by HPLC/MS measurements only.; + Minor as assessed by HPLC/UV measurements; ++ moderate as assessed by HPLC/UV measurements; +++ major as assessed by HPLC/UV measurements.; * m/z 593 and m/z 505 co-eluted in rabbit hepatocytes.; ** m/z 591 c and m/z 593 were merged in human hepatocytes and Hepatopack.; *** m/z 607 and m/z 751 b were merged in rabbit hepatocytes; conditions: for metabolite of Compound 2 observed in human hepatocyte incubations: 10 μM Compound 2, 7.5×10^5 cells/mL, 1 and 4 hrs composite
Protocol: as §1, §2, §3, §4, §5

[1] = Circulating metabolites of Compound 2 in rat plasma following a 1.0 mg/kg IV bolus dose; format: in vivo; conditions: 1.0 mg/kg IV bolus dose of Compound 2, pooled 0.033-24 hrs
Protocol: (§6) Plasma and bile samples were obtained from a bile duct cannulated rat experiment (Study PK-0111) in which a 1.0 mg/kg IV bolus dose was administered to fed male rats (N=3). No control plasma was available from this experiment.
Clin Pharmacol Ther 1981; 29(3):408-13]. The entire volume of each replicate Hamilton pool was combined to create a single pooled sample (576 μL) for analysis.
(§7) Pooled plasma and bile samples were extracted with ACN containing 0.1% formic acid, and after centrifugation at 1900×g, the supernatant was transferred to clean tubes and evaporated under N2 in a Turbovap set at 37° C. Residues were reconstituted in mobile phase (5:95 v:v ACN:0.1% aqueous formic acid) prior to analysis by HPLC/UV/MS^n.
as §3, §4, §5

[2] = Metabolites of Compound 2 in rat bile following a 1.0 mg/kg IV bolus dose; format: in vivo; conditions: 1.0 mg/kg IV bolus dose of Compound 2, bile duct cannulated rats, pooled 0-24 hrs
Protocol: as §6
Bile samples (0-3, 3-7, and 7-24 hrs) from individual animals were pooled in proportion to the amount collect in each interval. Then 0.5 mL of each individual pool was combined to prepare a composite sample for analysis.
as §7, §3, §4, §5

| metabolite of Compound 2 observed in mouse hepatocyte incubations (mouse hepatocytes) | metabolite of Compound 2 observed in rat hepatocyte incubations (rat hepatocytes) | metabolite of Compound 2 observed in rabbit hepatocyte incubations (rabbit hepatocytes) | metabolite of Compound 2 observed in monkey hepatocyte incubations (monkey hepatocytes) | metabolite of Compound 2 observed in human hepatocyte incubations (human hepatocytes) | metabolite of Compound 2 observed in human hepatocyte incubations (human hepatocytes; listed as m/z 751b) | detected in rat plasma [1] | detected in rat plasma ([1]; listed as m/z 751b) | detected in rat bile [2] | detected in rat bile ([2]; listed as m/z 751b) | Relative abundance of metabolite of Compound 2, Mouse (mouse hepatocytes; mouse cryopreserved hepatocytes, HPLC/UV/MS) | Relative abundance of metabolite of Compound 2, Rat (rat hepatocytes; rat cryopreserved hepatocytes, HPLC/UV/MS) | Relative abundance of metabolite of Compound 2, Rabbit (rabbit hepatocytes; rabbit cryopreserved hepatocytes, HPLC/UV/MS) | Relative abundance of metabolite of Compound 2, Monkey (monkey hepatocytes; monkey cryopreserved hepatocytes, HPLC/UV/MS) | Relative abundance of metabolite of Compound 2, Human (human hepatocytes; human cryopreserved hepatocytes, HPLC/UV/MS) | detected in rat plasma ([1]; listed as m/z 331) | detected in rat bile ([2]; listed as m/z 331) | SMILES |
| --- | --- | --- | --- | --- | --- | --- | --- | --- | --- | --- | --- | --- | --- | --- | --- | --- | --- |
| observed in all hepatocyte incubations | observed in all hepatocyte incubations | observed in all hepatocyte incubations | observed in all hepatocyte incubations | observed in all hepatocyte incubations | most abundant metabolites | observed | detected | observed | detected |  |  |  |  |  |  |  | C[C@]1(c2ccc(Cl)cn2)Oc2cccc(C3CCN(Cc4nc5ccc(C(=O)O[C@@H]6O[C@H](C(=O)O)[C@@H](O)[C@H](O)[C@H]6O)cc5n4C[C@@H]4CCO4)CC3)c2O1 [Metabolite 751b] |
| observed in all hepatocyte incubations | observed in all hepatocyte incubations | observed in all hepatocyte incubations | observed in all hepatocyte incubations | observed in all hepatocyte incubations |  | observed |  | observed |  | + | trace | trace | + | + | detected | detected | C[C@]1(c2ccc(Cl)cn2)Oc2cccc(C3CCNCC3)c2O1 [Metabolite 331] |
